Type in all cases: cell-based
Experiment [1] concerns the target T1, human TLR9 (Homo sapiens, UniProt Q9NR96).
T1 sequence (Q9NR96 26-1032): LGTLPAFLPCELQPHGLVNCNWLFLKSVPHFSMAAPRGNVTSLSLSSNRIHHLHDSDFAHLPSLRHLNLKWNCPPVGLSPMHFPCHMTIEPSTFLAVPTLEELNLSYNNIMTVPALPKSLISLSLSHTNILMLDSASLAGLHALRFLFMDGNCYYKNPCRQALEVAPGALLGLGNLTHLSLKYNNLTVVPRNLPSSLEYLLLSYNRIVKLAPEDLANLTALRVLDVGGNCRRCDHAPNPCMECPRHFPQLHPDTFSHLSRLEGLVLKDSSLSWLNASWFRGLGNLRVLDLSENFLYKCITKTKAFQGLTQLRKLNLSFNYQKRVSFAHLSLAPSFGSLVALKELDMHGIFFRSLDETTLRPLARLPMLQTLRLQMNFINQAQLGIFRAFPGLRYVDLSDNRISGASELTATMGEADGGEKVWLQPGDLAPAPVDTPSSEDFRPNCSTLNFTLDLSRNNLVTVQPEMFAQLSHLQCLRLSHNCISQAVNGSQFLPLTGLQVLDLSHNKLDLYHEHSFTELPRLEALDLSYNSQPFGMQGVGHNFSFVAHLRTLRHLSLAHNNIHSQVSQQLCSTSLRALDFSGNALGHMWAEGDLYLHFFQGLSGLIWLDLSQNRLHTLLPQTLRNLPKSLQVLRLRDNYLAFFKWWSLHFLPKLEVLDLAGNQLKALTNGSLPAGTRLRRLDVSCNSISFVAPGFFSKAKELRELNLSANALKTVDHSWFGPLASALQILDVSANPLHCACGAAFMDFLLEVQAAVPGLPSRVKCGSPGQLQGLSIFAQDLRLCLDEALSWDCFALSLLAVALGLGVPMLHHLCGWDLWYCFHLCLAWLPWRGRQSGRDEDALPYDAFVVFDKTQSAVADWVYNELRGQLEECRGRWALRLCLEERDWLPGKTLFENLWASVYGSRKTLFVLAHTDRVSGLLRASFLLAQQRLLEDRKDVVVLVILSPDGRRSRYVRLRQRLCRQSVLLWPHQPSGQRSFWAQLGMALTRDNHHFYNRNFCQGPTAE
The experiment is described as follows: TLR9 inhibition reporter assay (HEK-Blue cells, SEAP reporter). Conditions: HEK-Blue cells overexpressing human TLR9; stimulated with ODN2006 5 nM; 22 hour incubation; SEAP readout. Put shortly: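 HEK-Blue cells with an NF-κB/AP-1-driven SEAP reporter were pre-treated 30 min at room temperature with compound (0.05 nM–50 μM), then stimulated with gardiquimod 7.5 μM (TLR7), R848 15.9 μM (TLR8) or ODN2006 5 nM (TLR9). After 22 h at 37 °C, SEAP was read; % inhibition was referenced to agonist+DMSO and known-inhibitor wells.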
In general terms: In a reporter assay the amount or activity of a reporter protein is the signal.

For experiment [2], the target named is T2, human TLR7 (Homo sapiens, UniProt Q9NYK1).
T2 sequence (Q9NYK1 27-1049): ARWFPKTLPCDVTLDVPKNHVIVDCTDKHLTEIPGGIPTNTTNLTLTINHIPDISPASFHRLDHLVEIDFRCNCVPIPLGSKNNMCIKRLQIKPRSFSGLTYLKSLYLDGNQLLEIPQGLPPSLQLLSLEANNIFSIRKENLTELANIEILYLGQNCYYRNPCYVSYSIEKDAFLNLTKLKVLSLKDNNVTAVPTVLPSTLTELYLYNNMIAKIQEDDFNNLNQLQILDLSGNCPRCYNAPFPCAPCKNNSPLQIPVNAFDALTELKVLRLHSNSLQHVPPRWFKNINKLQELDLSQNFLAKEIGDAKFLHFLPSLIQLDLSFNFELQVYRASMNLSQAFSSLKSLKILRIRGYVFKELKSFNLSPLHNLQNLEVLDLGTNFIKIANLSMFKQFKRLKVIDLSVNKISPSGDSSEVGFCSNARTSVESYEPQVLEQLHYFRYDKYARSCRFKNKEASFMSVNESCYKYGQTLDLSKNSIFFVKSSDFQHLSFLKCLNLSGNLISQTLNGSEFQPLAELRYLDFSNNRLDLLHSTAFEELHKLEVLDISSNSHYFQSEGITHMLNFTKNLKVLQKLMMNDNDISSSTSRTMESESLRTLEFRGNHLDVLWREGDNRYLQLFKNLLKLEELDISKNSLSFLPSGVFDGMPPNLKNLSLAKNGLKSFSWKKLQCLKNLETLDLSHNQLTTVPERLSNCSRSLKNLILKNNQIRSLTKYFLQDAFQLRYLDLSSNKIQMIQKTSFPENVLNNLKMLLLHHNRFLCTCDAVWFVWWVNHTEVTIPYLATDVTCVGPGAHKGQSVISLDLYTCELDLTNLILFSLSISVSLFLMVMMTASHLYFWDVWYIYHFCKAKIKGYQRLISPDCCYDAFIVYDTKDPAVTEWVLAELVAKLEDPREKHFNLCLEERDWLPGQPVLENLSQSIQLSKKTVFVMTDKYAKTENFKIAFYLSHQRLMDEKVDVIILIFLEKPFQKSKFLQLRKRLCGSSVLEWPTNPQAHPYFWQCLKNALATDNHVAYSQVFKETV
Put plainly: TLR7 inhibition reporter assay (HEK-Blue cells, SEAP reporter). Conditions: HEK-Blue cells overexpressing human TLR7; stimulated with gardiquimod 7.5 μM; 22 hour incubation; SEAP readout. As to the method:
(§1) TLR7/8/9 Inhibition Reporter Assays
(§2) HEK-Blue™-cells (Invivogen) overexpressing human TLR7, TLR8 or TLR9 receptors were used for screening inhibitors of these receptors using an inducible SEAP (secreted embryonic alkaline phosphatase) reporter gene under the control of the […] minimal promoter fused to five NF-κB and AP-1-binding sites. Briefly, cells are seeded into Greiner 384 well plates (15000 cells per well for TLR7, 20,000 for TLR8 and 25,000 for TLR9) and then treated with test compounds in DMSO to yield a final dose response concentration range of 0.05 nM-50 μM. After a 30 minute compound pre-treatment at room temperature, the cells are then stimulated with a TLR7 ligand (gardiquimod at a final concentration of 7.5 μM), TLR8 ligand (R848 at a final concentration of 15.9 μM) or TLR9 ligand (ODN2006 at a final concentration of 5 nM) to activate NF-κB and AP-1 which induce the production of SEAP. After a 22 hour incubation at 37° C., 5% CO2, SEAP levels are determined with the addition of HEK-Blue™ Detection reagent (Invivogen), a cell culture medium that allows for detection of SEAP, according to manufacturer's specifications. The percent inhibition is determined as the % reduction in the HEK-Blue signal present in wells treated with agonist plus DMSO alone compared to wells treated with a known inhibitor.

Experiment [3] concerns the target T3, human TLR8 (Homo sapiens, UniProt Q9NR97).
T3 sequence (Q9NR97 27-1041): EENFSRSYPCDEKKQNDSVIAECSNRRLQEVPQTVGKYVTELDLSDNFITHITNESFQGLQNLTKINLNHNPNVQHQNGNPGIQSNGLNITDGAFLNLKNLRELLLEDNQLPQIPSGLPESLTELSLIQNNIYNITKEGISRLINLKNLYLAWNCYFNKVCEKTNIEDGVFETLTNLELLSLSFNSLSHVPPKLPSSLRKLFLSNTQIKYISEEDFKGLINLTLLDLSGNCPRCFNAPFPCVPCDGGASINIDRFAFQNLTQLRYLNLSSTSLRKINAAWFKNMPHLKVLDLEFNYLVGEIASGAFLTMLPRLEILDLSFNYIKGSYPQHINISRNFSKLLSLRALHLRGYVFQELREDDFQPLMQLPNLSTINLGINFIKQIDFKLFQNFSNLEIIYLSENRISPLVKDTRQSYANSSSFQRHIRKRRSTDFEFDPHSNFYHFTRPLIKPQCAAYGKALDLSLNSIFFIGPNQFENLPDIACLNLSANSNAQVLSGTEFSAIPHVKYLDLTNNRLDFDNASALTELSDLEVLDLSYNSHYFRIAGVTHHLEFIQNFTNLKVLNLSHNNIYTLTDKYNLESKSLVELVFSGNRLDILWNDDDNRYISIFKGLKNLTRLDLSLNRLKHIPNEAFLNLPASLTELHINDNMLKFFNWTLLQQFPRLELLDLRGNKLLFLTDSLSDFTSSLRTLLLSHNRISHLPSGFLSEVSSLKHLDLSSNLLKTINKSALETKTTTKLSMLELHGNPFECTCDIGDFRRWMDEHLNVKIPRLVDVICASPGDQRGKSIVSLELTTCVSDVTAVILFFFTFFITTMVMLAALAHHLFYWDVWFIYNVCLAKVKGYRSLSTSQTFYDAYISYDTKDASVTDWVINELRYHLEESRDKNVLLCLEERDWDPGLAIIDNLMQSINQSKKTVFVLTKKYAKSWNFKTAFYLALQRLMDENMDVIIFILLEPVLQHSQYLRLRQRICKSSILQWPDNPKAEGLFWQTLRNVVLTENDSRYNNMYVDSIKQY
The experiment is described as follows: TLR8 inhibition reporter assay (HEK-Blue cells, SEAP reporter). Conditions: HEK-Blue cells overexpressing human TLR8; stimulated with R848 15.9 μM; 22 hour incubation; SEAP readout. As for the experimental part: as §1, §2

On to `CC(C)CN1C2CCC1CC(N1CCC([C@H]3CCc4nc(-c5ccc(S(C)(=O)=O)cc5)cn4C3)CC1)C2` (single isomer, unassigned) [Example 79], for which the IC50 was determined as 171 nM in experiment [1], 16.7 µM in experiment [2] and 16.7 µM in experiment [3].

For `CC(C)N1CCCC(N2CCC(c3cc(F)c4nc(-c5ccc(S(C)(=O)=O)cc5)cn4c3)CC2)CC1` (single isomer, unassigned) [Example 72, 8-fluoro-6-(1-(1-isopropylazepan-4-yl)piperidin-4-yl)-2-(4-(methylsulfonyl)phenyl)imidazo[1,2-a]pyridine], the IC50 in experiment [1] is 2.6 nM; in experiment [2], 3 µM; in experiment [3], above 50 µM.

`COc1ccc(-c2cn3cc(C4CCN(C5CC6CCC(C5)N6CC5CC5)CC4)cc(C)c3n2)cc1OC` (single isomer, unassigned) [Example 20, 6-(1-(8-(cyclopropylmethyl)-8-azabicyclo[3.2.1]octan-3-yl)piperidin-4-yl)-2-(3,4-dimethoxyphenyl)-8-methylimidazo[1,2-a]pyridine]: the IC50 is 23 nM in experiment [1], 1.5 µM in experiment [2] and above 50 µM in experiment [3].

`COc1ccc(-c2cn3c(n2)CCC(C2CCN(C4CCN(C(=O)C5CC5)CC4)CC2)C3)cc1OC` (single isomer, unassigned) [Example 44, cyclopropyl(4-(2-(3,4-dimethoxyphenyl)-5,6,7,8-tetrahydroimidazo[1,2-a]pyridin-6-yl)-[1,4′-bipiperidin]-1′-yl)methanone]: the IC50 is 314 nM in experiment [1], 45 µM in experiment [2] and above 50 µM in experiment [3].

`COc1ccc(-c2cn3cc(C4CCN(C5CCN(C(C)C)CC5)CC4)cc(C)c3n2)cc1F` [Example 5, 2-(3-fluoro-4-methoxyphenyl)-6-(1′-isopropyl-[1,4′-bipiperidin]-4-yl)-8-methylimidazo[1,2-a]pyridine]: the IC50 in experiment [1] was 166 nM; in experiment [2], 3 µM; in experiment [3], above 50 µM.

In the case of `CC(C)CN1C2CCC1CC(N1CCC(c3cc(F)c4nc(-c5ccc(S(C)(=O)=O)cc5)cn4c3)CC1)C2` (single isomer, unassigned) [Example 113, 8-fluoro-6-(1-(8-isobutyl-8-azabicyclo[3.2.1]octan-3-yl)piperidin-4-yl)-2-(4-(methylsulfonyl)phenyl)imidazo[1,2-a]pyridine], the IC50 in experiment [1] was 31 nM; in experiment [2] it was 0.6 µM; in experiment [3], above 50 µM.

Regarding `COc1ccc(-c2cn3cc(C4C[C@H]5CC[C@@H](C4)N5C4CCN(CC(C)C)CC4)cc(C)c3n2)cc1OC` (mixture of isomers) [Example 27, 2-(3,4-dimethoxyphenyl)-6-(8-(1-isobutylpiperidin-4-yl)-8-azabicyclo[3.2.1]octan-3-yl)-8-methylimidazo[1,2-a]pyridine], the IC50 in experiment [1] was 17 nM; in experiment [2], 1.4 µM; in experiment [3] it was above 50 µM.

Take `Cc1cc(-c2ccc(N3CCN(CC(C)C)CC3)cc2)cn2cc(-c3ccc(S(C)(=O)=O)cc3)nc12` [Example 99, 6-(4-(4-isobutylpiperazin-1-yl)phenyl)-8-methyl-2-(4-(methylsulfonyl)phenyl) imidazo[1,2-a]pyridine]: the IC50 was 624 nM in experiment [1], above 50 µM in experiment [2] and above 50 µM in experiment [3].

Turning to `CS(=O)(=O)c1ccc(-c2cn3c(n2)CC[C@H](C2CCN(C4CC5CCC(C4)N5CC4CC4)CC2)C3)cc1` (single isomer, unassigned) [Example 138], the IC50 in experiment [1] was 381 nM; in experiment [2] it was above 50 µM; in experiment [3], above 50 µM.

With `COc1ccc(-c2cn3c(n2)CC[C@@H](C2CCN(C4CC5CCC(C4)N5CC(C)C)CC2)C3)cc1OC` (single isomer, unassigned) [Example 77], the IC50 in experiment [1] was 64 nM; in experiment [2] it was 3.6 µM; in experiment [3] it was above 25 µM.

For orientation: IC50 means the concentration that inhibits the measured activity by half. Read a high IC50 as weaker potency.
